Data as given in patent publication US20240025875A1, “A COMPOUND AS A THYROID HORMONE BETA RECEPTOR AGONIST AND USE THEREOF” (SUNSHINE LAKE PHARMA CO., LTD., priority 2020, published 2024).

How the values were obtained:
TRα = biological target: T1, TRα (Homo sapiens, UniProt P10827); test: LanthaScreen TR-FRET Thyroid Receptor alfa Coactivator Assay (in vitro binding activity); conditions: TR alfa-LBD
T1 construct: 5 μL of 4×TR beta/alfa-LBD; purchased Invitrogen PV4687
Summary of the method: (§1)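 TR-FRET coactivator recruitment used GST-tagged TRα or TRβ ligand-binding domain with fluorescein-SRC2-2 peptide and Tb anti-GST antibody (0.4 μM and 8 nM in the added mix). Compound was run as 10-point 3-fold dilutions (2% DMSO solution) for 1 h at room temperature in the dark. EC50 came from the 520/495 nm emission ratio.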

TRβ = biological target: T2, TRβ (Homo sapiens, UniProt P10828); test: LanthaScreen TR-FRET Thyroid Receptor beta Coactivator Assay (in vitro binding activity); conditions: TR beta-LBD
T2 construct: 5 μL of 4×TR beta/alfa-LBD; purchased Invitrogen PV4686
T2 sequence (P10828 217-461 limits assumed): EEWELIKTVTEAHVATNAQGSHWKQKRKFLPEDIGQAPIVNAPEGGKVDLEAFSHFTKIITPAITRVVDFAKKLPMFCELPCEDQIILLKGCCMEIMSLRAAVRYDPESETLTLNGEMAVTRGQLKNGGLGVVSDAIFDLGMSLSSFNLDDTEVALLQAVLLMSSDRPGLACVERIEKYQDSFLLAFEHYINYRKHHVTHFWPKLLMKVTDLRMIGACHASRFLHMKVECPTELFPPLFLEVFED
Summary of the method: as §1

[1] = Pharmacokinetic determination in SD rats (i.v. and i.g.); type: in vivo; conditions: for AUC(0-inf) / AUC(0-t) / Cmax / clearance / half-life / Vd: male, Sprague-Dawley (SD), rat, plasma; for Vd: read-out: VSS
From the text: Test purposes: The following method was used to determine the pharmacokinetics of the compound of the present invention.
Test Materials: • Experimental reagents and test samples used: Propranolol (internal standard), methanol, ammonium acetate, K2EDTA (potassium ethylenediaminetetraacetic acid), formic acid, acetonitrile MTBE (methyl tert-butyl ether). KolliphorHS15 (macrogol 12 hydroxystearate), DMSO (dimethyl sulfoxide) are commercially available • SD rats: male, 180-220 g, 7-8 weeks old, purchased from Human Slack Experimental Animal Co., Ltd.
Each test sample prepared was completely dissolved in a mixture of 5% DMSO+5% KolliphorHS 15+90% Saline according solubility property thereof.
Samples were processed by liquid-liquid extraction, chromatographically separated, quantitatively analyzed by multiple reaction ion monitoring (MRM) on a triple quadrupole tandem mass spectrometer, and the concentration of the results was calculated by instrument quantitative software.
30 μL of plasma sample was precisely pipetted, added with 250 μL of internal standard, and vortexed to mix thoroughly. Plasma samples was extracted once with 1 mL of MTBE, centrifuged at 13,000 rpm for 2 min at 4° C. 800 μL of the supernatant was sucked out, evaporated to dryness in a 96-well nitrogen blower, and the residue was reconstituted with 150 μL of methanol/water (v/v=50/50), vortexed to mix, and injected with an injection volume of 8 μL.
LC/MS/MS method was used to determine the content of the test compound in rat plasma after administration of different compounds.
Pharmacokinetic parameters were calculated using a noncompartmental method by WinNonLin 6.1 software.

T1 sequence (P10827 163-410 isoform P10827-2 limits assumed, other chains not shown): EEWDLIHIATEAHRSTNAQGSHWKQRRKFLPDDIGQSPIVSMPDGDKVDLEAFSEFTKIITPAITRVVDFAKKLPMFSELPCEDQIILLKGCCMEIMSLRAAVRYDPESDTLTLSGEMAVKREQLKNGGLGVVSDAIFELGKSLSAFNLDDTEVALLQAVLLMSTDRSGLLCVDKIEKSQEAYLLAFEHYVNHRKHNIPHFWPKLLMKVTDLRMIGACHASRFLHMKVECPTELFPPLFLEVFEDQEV

Structure (SMILES)	EC50 (TRα)	EC50 (TRβ)	F ([1]; ig, 5 mg/kg)	AUC(0-inf) ([1]; iv, 1 mg/kg)	AUC(0-t) ([1]; iv, 1 mg/kg)	Cmax ([1]; iv, 1 mg/kg)	clearance ([1]; iv, 1 mg/kg)	half-life ([1]; iv, 1 mg/kg)	Vd ([1]; iv, 1 mg/kg)	AUC(0-inf) ([1]; po, ig, 5 mg/kg)	AUC(0-t) ([1]; po, ig, 5 mg/kg)	Cmax ([1]; po, ig, 5 mg/kg)	half-life ([1]; po, ig, 5 mg/kg)
O=C1c2ccc(Oc3c(Cl)cc(-n4ncc(=O)[nH]c4=O)cc3Cl)cc2CCN1Cc1cccnc1 [Example 45, 2-(3,5-dichloro-4-((1-oxo-2-(pyridin-3-ylmethyl)-1,2,3,4-tetrahydroisoquinolin-6-yl)oxy)phenyl)-1,2,4-triazine-3,5(2H,4H)-dione]	> 100 µM	0.061 µM	163.9%	2510 ng·h/mL	2460 ng·h/mL	1780 ng/mL	6.65 mL/min/kg	1.15 h	0.57 L/kg	20600 ng·h/mL	20300 ng·h/mL	5320 ng/mL	4.14 h
O=C1c2ccc(Oc3c(Cl)cc(-n4ncc(=O)[nH]c4=O)cc3Cl)cc2CCN1Cc1ccccn1 [Example 46, 2-(3,5-dichloro-4-((1-oxo-2-(pyridin-2-ylmethyl)-1,2,3,4-tetrahydroisoquinolin-6-yl)oxy)phenyl)-1,2,4-triazine-3,5(2H,4H)-dione]	> 100 µM	0.035 µM	126.5%	10000 ng·h/mL	9810 ng·h/mL	4160 ng/mL	1.66 mL/min/kg	4.24 h	0.424 L/kg	633000 ng·h/mL	61900 ng·h/mL	6410 ng/mL	5.93 h
O=C1c2ccc(Oc3c(Cl)cc(-n4ncc(=O)[nH]c4=O)cc3Cl)cc2CCN1c1cccnc1 [Example 49, 2-(3,5-dichloro-4-((1-oxo-2-(pyridin-3-yl)-1,2,3,4-tetrahydroisoquinolin-6-yl)oxy)phenyl)-1,2,4-triazine-3,5(2H,4H)-dione]	> 100 µM	0.107 µM	138.3%	3730 ng·h/mL	3580 ng·h/mL	5300 ng/mL	4.46 mL/min/kg	1.14 h	0.306 L/kg	25800 ng·h/mL	25300 ng·h/mL	9680 ng/mL	3.63 h
